# In PubChem BioAssay AID330 (DTP/NCI, 2004):
# Several values for one entry are separate records, joined by “and”; a condition that tells them apart may be missing. Equal values may be shown once. Toxic doses and inconclusive results are not listed.
# System: P388 leukemia ip, CD2F1 mice, survival T/C
# Assay: NCI In Vivo Anticancer Drug Screen. Data for tumor model P388 Leukemia (intraperitoneal) in CD2F1 (CDF1) mice
# Conditions: endpoint: median survival time, higher = longer survival
# Outline: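 Mice carrying the transplanted tumor received test compound or vehicle. Survival was recorded in each group, and the value is the treated-group measurement divided by that of the vehicle-treated control group.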
# [1] = dose: 25.0 mg/kg/injection, schedule: Q01DX009 (ip), vehicle: saline with Tween-80
# [2] = dose: 50.0 mg/kg/injection, schedule: Q01DX009 (ip), vehicle: saline with Tween-80
# [3] = dose: 100.0 mg/kg/injection, schedule: Q01DX009 (ip), vehicle: saline with Tween-80
# [4] = dose: 6.25 mg/kg/injection, schedule: Q01DX009 (ip), vehicle: saline with Tween-80
# [5] = dose: 12.5 mg/kg/injection, schedule: Q01DX009 (ip), vehicle: saline with Tween-80
# [6] = dose: 50.0 mg/kg/injection, schedule: Q01DX005 (ip), vehicle: saline
# [7] = dose: 100.0 mg/kg/injection, schedule: Q01DX005 (ip), vehicle: saline
# [8] = dose: 200.0 mg/kg/injection, schedule: Q01DX005 (ip), vehicle: saline
# [9] = dose: 50.0 mg/kg/injection, schedule: Q01DX009 (ip), vehicle: saline
# [10] = dose: 100.0 mg/kg/injection, schedule: Q01DX009 (ip), vehicle: saline
# [11] = dose: 100.0 mg/kg/injection, schedule: Q04DX003 (ip), vehicle: saline with Tween-80
structure (smiles),measurement,setting,value
O=C(NC(CCSSCCC(NC(=O)OCc1ccccc1)C(=O)O)C(=O)O)OCc1ccccc1 (configuration not stated),T/C,"dose: 12.5 mg/kg/injection, schedule: Q01DX009 (ip), vehicle: other",98 % of control
same,T/C,"dose: 25.0 mg/kg/injection, schedule: Q01DX009 (ip), vehicle: other",98 % of control
same,T/C,"dose: 50.0 mg/kg/injection, schedule: Q01DX009 (ip), vehicle: other",101 % of control
same,T/C,"dose: 100.0 mg/kg/injection, schedule: Q01DX009 (ip), vehicle: other",100 % of control
same,T/C,"dose: 200.0 mg/kg/injection, schedule: Q01DX009 (ip), vehicle: other",103 % of control
O=[N+]([O-])c1ccc(-c2nc(/C=N/N3CCCCC3)cs2)s1,T/C,[1],104 % of control
same,T/C,[2],106 % of control
same,T/C,[3],109 % of control
NC(=S)N/N=C/c1ccc(OC(F)(F)F)cn1,T/C,"dose: 1.56 mg/kg/injection, schedule: Q01DX009 (ip), vehicle: saline with Tween-80",101 % of control
same,T/C,"dose: 3.13 mg/kg/injection, schedule: Q01DX009 (ip), vehicle: saline with Tween-80",101 % of control and 107 % of control
same,T/C,[4],100 % of control and 95 % of control
same,T/C,[5],99 % of control and 101 % of control
same,T/C,[1],101 % of control
same,T/C,[2],114 % of control
CC1CC(=O)Nc2ncnc(N)c21 (configuration not stated),T/C,"dose: 60.0 mg/kg/injection, schedule: Q01DX005 (ip), vehicle: saline with Tween-80",98 % of control
same,T/C,"dose: 120.0 mg/kg/injection, schedule: Q01DX005 (ip), vehicle: saline with Tween-80",106 % of control
same,T/C,"dose: 240.0 mg/kg/injection, schedule: Q01DX005 (ip), vehicle: saline with Tween-80",108 % of control
CC(C)(C)OC(=O)NC(CCCN=C(N)N)C(=O)O (configuration not stated),T/C,[6],100 % of control
same,T/C,[7],94 % of control
same,T/C,[8],100 % of control
N#C/C(N)=C(\C#N)N=Cc1ccc(-c2ccccc2)cc1,T/C,"dose: 100.0 mg/kg/injection, schedule: Q01DX001 (ip), vehicle: saline with Tween-80",90 % of control
same,T/C,"dose: 200.0 mg/kg/injection, schedule: Q01DX001 (ip), vehicle: saline with Tween-80",90 % of control
same,T/C,"dose: 400.0 mg/kg/injection, schedule: Q01DX001 (ip), vehicle: saline with Tween-80",86 % of control
COc1cccc2c1C(=O)c1c(O)c3c(c(O)c1C2=O)C[C@@](O)(/C(C)=N/NC(=O)c1ccc(S(N)(=O)=O)cc1)C[C@@H]3OC1CC(N)C(O)C(C)O1 (some centres not stated),T/C,"dose: 0.78 mg/kg/injection, schedule: Q01DX009 (ip), vehicle: water",150 % of control
same,T/C,"dose: 1.56 mg/kg/injection, schedule: Q01DX009 (ip), vehicle: water",161 % of control
same,T/C,"dose: 3.13 mg/kg/injection, schedule: Q01DX009 (ip), vehicle: water",154 % of control and 182 % of control
same,T/C,"dose: 4.7 mg/kg/injection, schedule: Q04DX003 (ip), vehicle: water",105 % of control and 106 % of control
same,T/C,"dose: 6.25 mg/kg/injection, schedule: Q01DX009 (ip), vehicle: water",178 % of control and 201 % of control
same,T/C,"dose: 12.5 mg/kg/injection, schedule: Q01DX001 (ip), vehicle: water",161 % of control
same,T/C,"dose: 12.5 mg/kg/injection, schedule: Q01DX009 (ip), vehicle: water",196 % of control and 214 % of control
same,T/C,"dose: 18.8 mg/kg/injection, schedule: Q04DX003 (ip), vehicle: water",123 % of control
same,T/C,"dose: 25.0 mg/kg/injection, schedule: Q01DX001 (ip), vehicle: water",188 % of control
same,T/C,"dose: 37.5 mg/kg/injection, schedule: Q04DX003 (ip), vehicle: water",203 % of control
same,T/C,"dose: 75.0 mg/kg/injection, schedule: Q04DX003 (ip), vehicle: water",122 % of control
same,T/C,"dose: 150.0 mg/kg/injection, schedule: Q04DX003 (ip), vehicle: water",100 % of control and 93 % of control
O=C(O)CCC(=O)OCCNCCOC(=O)CCC(=O)O,T/C,[9],92 % of control
same,T/C,[10],96 % of control
same,T/C,"dose: 200.0 mg/kg/injection, schedule: Q01DX009 (ip), vehicle: saline",99 % of control
CCn1c2ccccc2c2cc(N)c(N=Nc3ccc(N(C)C)cc3)cc21,T/C,"dose: 50.0 mg/kg/injection, schedule: Q01DX009 (ip), vehicle: Klucel (hydroxypropylcellulose) (HPC)",113 % of control
same,T/C,"dose: 100.0 mg/kg/injection, schedule: Q01DX009 (ip), vehicle: Klucel (hydroxypropylcellulose) (HPC)",105 % of control
same,T/C,"dose: 200.0 mg/kg/injection, schedule: Q01DX009 (ip), vehicle: Klucel (hydroxypropylcellulose) (HPC)",103 % of control
COC(=O)C1C(COS(C)(=O)=O)ON2CCC(OC)(OC)C12 (configuration not stated),T/C,[6],95 % of control
same,T/C,[7],98 % of control
same,T/C,[8],95 % of control
CC1CC(c2ccccc2Cl)C(c2ccccc2)C(=O)O1 (configuration not stated),T/C,"dose: 100.0 mg/kg/injection, schedule: Q04DX003 (ip), vehicle: Klucel (hydroxypropylcellulose) (HPC)",100 % of control
same,T/C,"dose: 200.0 mg/kg/injection, schedule: Q04DX003 (ip), vehicle: Klucel (hydroxypropylcellulose) (HPC)",106 % of control
same,T/C,"dose: 400.0 mg/kg/injection, schedule: Q04DX003 (ip), vehicle: Klucel (hydroxypropylcellulose) (HPC)",108 % of control
COc1cc(C=Nc2cc(Cl)cc(Cl)c2)ccc1N(CCCl)CCCl,T/C,[11],159 % of control and 172 % of control
same,T/C,"dose: 200.0 mg/kg/injection, schedule: Q04DX003 (ip), vehicle: saline with Tween-80",181 % of control and 222 % of control
same,T/C,"dose: 300.0 mg/kg/injection, schedule: Q04DX003 (ip), vehicle: saline with Tween-80",204 % of control
NC(N)=NCC1CCCCCCN1 (configuration not stated),T/C,"dose: 12.5 mg/kg/injection, schedule: Q01DX009 (ip), vehicle: saline",106 % of control
same,T/C,"dose: 25.0 mg/kg/injection, schedule: Q01DX009 (ip), vehicle: saline",100 % of control
same,T/C,[9],104 % of control
same,T/C,[10],104 % of control
O=C(/C=C/c1ccccc1Cl)c1ccccc1,T/C,[2],112 % of control
same,T/C,[3],110 % of control
same,T/C,"dose: 200.0 mg/kg/injection, schedule: Q01DX009 (ip), vehicle: saline with Tween-80",114 % of control
COc1cc2c(c(OC)c1OC)-c1ccc(=O)c(OC)cc1[C@@H](N(C)C=O)CC2,T/C,"dose: 2.5 mg/kg/injection, schedule: Q01DX009 (ip), vehicle: Klucel (hydroxypropylcellulose) (HPC)",105 % of control
same,T/C,"dose: 5.0 mg/kg/injection, schedule: Q01DX009 (ip), vehicle: Klucel (hydroxypropylcellulose) (HPC)",112 % of control
same,T/C,"dose: 10.0 mg/kg/injection, schedule: Q01DX009 (ip), vehicle: Klucel (hydroxypropylcellulose) (HPC)",100 % of control
same,T/C,"dose: 20.0 mg/kg/injection, schedule: Q01DX009 (ip), vehicle: Klucel (hydroxypropylcellulose) (HPC)",114 % of control
same,T/C,"dose: 40.0 mg/kg/injection, schedule: Q01DX009 (ip), vehicle: Klucel (hydroxypropylcellulose) (HPC)",114 % of control
Cc1cc2ncn(CC(=O)O)c2cc1C,T/C,"dose: 50.0 mg/kg/injection, schedule: Q04DX003 (ip), vehicle: saline with Tween-80",100 % of control
same,T/C,[11],90 % of control
CCn1cc(C(=O)O)c(=O)c2ccc(-c3cn(C)nc3C)nc21 (tested in a mixture with another compound),T/C,"dose: 50.0 mg/kg/injection, schedule: Q04DX002 (ip), vehicle: saline",99 % of control
same,T/C,"dose: 100.0 mg/kg/injection, schedule: Q04DX002 (ip), vehicle: saline",99 % of control
same,T/C,"dose: 200.0 mg/kg/injection, schedule: Q04DX002 (ip), vehicle: saline",98 % of control
CS(=O)(=O)Nc1cccc2c1-c1ccccc1C2=O,T/C,"dose: 50.0 mg/kg/injection, schedule: Q01DX005 (ip), vehicle: Klucel (hydroxypropylcellulose) (HPC)",96 % of control
same,T/C,"dose: 100.0 mg/kg/injection, schedule: Q01DX005 (ip), vehicle: Klucel (hydroxypropylcellulose) (HPC)",101 % of control
same,T/C,"dose: 200.0 mg/kg/injection, schedule: Q01DX005 (ip), vehicle: Klucel (hydroxypropylcellulose) (HPC)",88 % of control
COc1ccccc1C1OC2=C(Nc3ccc(Cl)cc3N2)C1=O (configuration not stated),T/C,"dose: 7.5 mg/kg/injection, schedule: Q01DX005 (ip), vehicle: Klucel (hydroxypropylcellulose) (HPC)",100 % of control
same,T/C,"dose: 15.0 mg/kg/injection, schedule: Q01DX005 (ip), vehicle: Klucel (hydroxypropylcellulose) (HPC)",93 % of control
same,T/C,"dose: 30.0 mg/kg/injection, schedule: Q01DX005 (ip), vehicle: Klucel (hydroxypropylcellulose) (HPC)",87 % of control
O=c1[nH]nc(-c2ccc([N+](=O)[O-])o2)o1,T/C,[4],101 % of control
same,T/C,[5],106 % of control
same,T/C,[1],97 % of control
same,T/C,[2],99 % of control
